Results on 13 molecules are retold here after patent US11976083B2, “Inhibitors of peptidylarginine deiminases” (Gilead Sciences, Inc., priority 2020, dated 2024).

Structures are written as SMILES.

By IC50 is commonly meant the concentration needed to halve the response being measured.

The target of this assay is T1, human PAD4 (Homo sapiens, UniProt Q9UM07).
T1 construct: human PAD4 (NM_012387), A2-P663, was PCR amplified; His-SUMO (N, cleaved yes); made in house; host or cells: E. coli BL21(DE3)
Kind of assay: In vitro PAD4 BAEE biochemical assay. Particulars: BAEE substrate 3 mM, 5 nM PAD4, 2 mM calcium chloride; geometric mean of multiple experiments. In a few lines:
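Assay was run at 25 °C using 3 mM BAEE and 5 nM human PAD4 after a 30 min compound preincubation; ammonia produced over 2 h was quantified by OPA-derived fluorescence. Full inhibition was defined by 50 µM BB-Cl-Amidine, and IC50 came from variable-slope nonlinear regression.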

T1 sequence (Q9UM07 2-663): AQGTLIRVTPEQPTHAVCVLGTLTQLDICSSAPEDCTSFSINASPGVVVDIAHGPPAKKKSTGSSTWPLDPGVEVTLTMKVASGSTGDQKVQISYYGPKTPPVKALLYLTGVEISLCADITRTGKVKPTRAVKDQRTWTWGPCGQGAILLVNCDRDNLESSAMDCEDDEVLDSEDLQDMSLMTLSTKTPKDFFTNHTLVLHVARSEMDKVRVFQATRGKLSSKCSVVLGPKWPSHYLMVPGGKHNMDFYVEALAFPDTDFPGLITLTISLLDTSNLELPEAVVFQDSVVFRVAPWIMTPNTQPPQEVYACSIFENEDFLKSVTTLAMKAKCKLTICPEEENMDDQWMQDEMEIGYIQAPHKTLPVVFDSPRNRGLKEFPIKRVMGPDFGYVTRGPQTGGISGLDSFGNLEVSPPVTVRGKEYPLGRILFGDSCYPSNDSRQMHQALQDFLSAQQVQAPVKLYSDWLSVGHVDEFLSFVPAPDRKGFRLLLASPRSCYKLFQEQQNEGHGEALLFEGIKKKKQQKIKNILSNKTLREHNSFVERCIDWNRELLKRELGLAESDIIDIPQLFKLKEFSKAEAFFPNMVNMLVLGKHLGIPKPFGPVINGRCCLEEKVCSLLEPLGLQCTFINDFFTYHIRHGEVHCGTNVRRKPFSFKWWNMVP

For the molecule `COc1cc(C(=O)N2CCC[C@@H](N)C2)cc2nc(-c3cc4ccc5nc4n3CCCCCCCC(=O)N[C@@H]5C)n(C)c12` [Example 282, (11~{R})-17-[5-[(3~{R})-3-aminopiperidine-1-carbonyl]-7-methoxy-1-methyl-benzimidazol-2-yl]-11-methyl-1,10,19-triazatricyclo[10.5.2.0^{15,18}]nonadeca-12(19),13,15(18),16-tetraen-9-one], the IC50 was 13 nM.
With `COc1cc(C(=O)N2C[C@H](N)[C@@H]3CC[C@H]2C3)cc2nc(-c3cc4ccc5nc4n3CC(F)(F)CCCC[C@](C)(C(F)(F)F)C(=O)N[C@@H]5C)n(C)c12` [Example 459, (8~{S},11~{R})-17-[5-[(1~{S},4~{R},5~{R})-4-amino-2-azabicyclo[3.2.1]octane-2-carbonyl]-7-methoxy-1-methyl-benzimidazol-2-yl]-3,3-difluoro-8,11-dimethyl-8-(trifluoromethyl)-1,10,19-triazatricyclo[10.5.2.0^{15,18}]nonadeca-12(19),13,15(18),16-tetraen-9-one] the figure was 130 nM.
For the molecule `COc1cc(C(=O)N[C@H]2CNCC[C@H]2OC)cc2nc(-c3cc4ccc5nc4n3CCCCCCC(C)(C)C(=O)N[C@@H]5C)n(C)c12` [Example 82, 7-methoxy-~{N}-[(3~{S},4~{R})-4-methoxy-3-piperidyl]-1-methyl-2-[(11~{R})-8,8,11-trimethyl-9-oxo-1,10,19-triazatricyclo[10.5.2.0^{15,18}]nonadeca-12(19),13,15(18),16-tetraen-17-yl]benzimidazole-5-carboxamide], the IC50 came to 8110 nM.
With `COCCn1c(-c2cc3ccc4nc3n2CCCCCCC(C)(C)C(=O)N[C@@H]4C)nc2cc(C(=O)N[C@H]3CNCC[C@@H]3F)c(F)cc21` [Example 417, 6-fluoro-~{N}-[(3~{S},4~{S})-4-fluoro-3-piperidyl]-1-(2-methoxyethyl)-2-[(11~{R})-8,8,11-trimethyl-9-oxo-1,10,19-triazatricyclo[10.5.2.0^{15,18}]nonadeca-12(19),13,15(18),16-tetraen-17-yl]benzimidazole-5-carboxamide] the figure was 62 nM; with `CO[C@H]1C[C@@H]1n1c(-c2cc3ccc4nc3n2CC(F)(F)CCC[C@@H]2C[C@H]2C(=O)N[C@@H]4C)nc2cc(C(=O)N3C[C@H](N)[C@@H]4CC[C@H]3C4)cc(F)c21` [Example 470, (2~{R},5~{R},7~{R})-14-[5-[(1~{S},4~{R},5~{R})-4-amino-2-azabicyclo[3.2.1]octane-2-carbonyl]-7-fluoro-1-[(1~{S},2~{S})-2-methoxycyclopropyl]benzimidazol-2-yl]-11,11-difluoro-2-methyl-3,13,19-triazatetracyclo[11.5.2.0^{5,7}.0^{16,20}] icosa-1(18),14,16,19-tetraen-4-one], 43 nM; with `COc1cc(C(=O)N2CCC[C@@H](N)C2)cc2nc(-c3cc4ccc5nc4n3CCCOC[C@@H]3C[C@@H]3C(=O)N[C@@H]5C)n(C)c12` [Example 309, (2~{R},5~{S},7~{R})-14-[5-[(3~{R})-3-aminopiperidine-1-carbonyl]-7-methoxy-1-methyl-benzimidazol-2-yl]-2-methyl-9-oxa-3,13,19-triazatetracyclo[11.5.2.0^{5,7}.0^{16,20}] icosa-1(19),14,16(20),17-tetraen-4-one], 1380 nM.
The figure for `C[C@H]1NC(=O)[C@H]2C[C@@H]2CC[C@@H]2C[C@@H]2Cn2c(-c3nc4cc(C(=O)N[C@H]5CNCC[C@@H]5F)c(F)cc4n3C)cc3ccc1nc32` [Example 379, 6-fluoro-~{N}-[(3~{S),4~{S})-4-fluoro-3-piperidyl]-1-methyl-2-[(3~{S},5~{R},8~{S},10~{S},13~{R})-13-methyl-11-oxo-1,12,21-triazapentacyclo[12.5.2.0^{3,5}.0^{8,10}.0^ {17,20}]henicosa-14(21),15,17(20),18-tetraen-19-yl]benzimidazole-5-carboxamide] is 2040 nM; for `C[C@H]1NC(=O)[C@@H]2C[C@@]2(F)CCCCCn2c(-c3nc4cc(C(=O)N5C[C@H](N)[C@@H]6CC[C@H]5C6)cc(F)c4n3CC(F)F)cc3ccc1nc32` [Example 920, (2~{R},5~{S},7~{S})-14-[5-[(1~{S),4~{R},5~{R})-4-amino-2-azabicyclo[3.2.1]octane-2-carbonyl]-1-(2,2-difluoroethyl)-7-fluoro-benzimidazol-2-yl]-7-fluoro-2-methyl-3,13,19-triazatetracyclo [11.5.2.0^{5,7}.0^{16,20}] icosa-1(19),14,16(20),17-tetraen-4-one] it is 21 nM.
Regarding `C[C@H]1NC(=O)C(C)(C)CCCCCCn2c(-c3nc4cc(C(=O)N[C@H]5CNCC[C@@H]5F)c(F)cc4n3C3CC3)cc3ccc1nc32` [Example 179, 1-cyclopropyl-6-fluoro-~{N}-[(3~{S},4~{S})-4-fluoro-3-piperidyl]-2-[(11~{R})-8,8,11-trimethyl-9-oxo-1,10,19-triazatricyclo[10.5.2.0^{15,18}]nonadeca-12(19),13,15(18),16-tetraen-17-yl]benzimidazole-5-carboxamide], the IC50 is 62 nM.
The figure for `CO[C@@H]1CCN(C(=O)c2cc(F)c3c(c2)nc(-c2cc4ccc5nc4n2CCCCCC[C@@](F)(c2cccc(Cl)n2)C(=O)N[C@@H]5C)n3C2CC2)C[C@@H]1N` [Example 875, (8~{R},11~{R})-17-[5-[(3~{S), 4~{R})-3-amino-4-methoxy-piperidine-1-carbonyl]-1-cyclopropyl-7-fluoro-benzimidazol-2-yl]-8-(6-chloro-2-pyridyl)-8-fluoro-11-methyl-1,10,19-triazatricyclo[10.5.2.0^{15,18}] nonadeca-12(19), 13,15(18),16-tetraen-9-one] is 148 nM; for `COc1cc(C(=O)N2[C@H]3CC[C@@H]2[C@H](N)C3)cc2nc(-c3cc4ccc5nc4n3CCCCCCC(=O)N3CCC[C@H]53)n(C)c12` [Example 131, (2~{R})-15-[5-[(1~{R},2~{R},4~{S})-2-amino-7-azabicyclo[2.2.1]heptane-7-carbonyl]-7-methoxy-1-methyl-benzimidazol-2-yl]-6,14,20-triazatetracyclo[12.5.2.0^{2,6}.0^{17,21}] henicosa-1(20),15,17(21),18-tetraen-7-one] it is 15 nM.
`COc1cc(C(=O)N2C[C@H](N)[C@@H]3CC[C@H]2C3)cc2nc(-c3cc4ccc5nc4n3CC(F)(F)CCCCC(C)(C)C(=O)N[C@@H]5C)n(C3CC3)c12` [Example 941, (11~{R})-17-[5-[(1~{S},4~{R}, 5~{R})-4-amino-2-azabicyclo [3.2.1]octane-2-carbonyl]-1-cyclopropyl-7-methoxy-benzimidazol-2-yl]-3,3-difluoro-8,8,11-trimethyl-1,10,19-triazatricyclo[10.5.2.0^{15,18}] nonadeca-12(19), 13,15(18),16-tetraen-9-one]: the IC50 worked out at 68 nM.
With `COc1cc(C(=O)N2C[C@H]3CC[C@@H]2[C@@H]3N)cc2nc(-c3cc4ccc5nc4n3CCCCCc3cncc(F)c3C(=O)N[C@@H]5C)n(C)c12` [Example 658, (2~{R})-17-[5-[(1~{R},4~ {R},7~{R})-7-amino-2-azabicyclo[2.2.1]heptane-2-carbonyl]-7-methoxy-1-methyl-benzimidazol-2-yl]-6-fluoro-2-methyl-3,8,16,22-tetrazatetracyclo[14.5.2.0^ {5,10).0^{19,23}] tricosa-1(22),5,7,9,17,19(23), 20-heptaen-4-one] the figure was 25 nM.
